# Patent publication US9980943B2, “Methods of treating muscular dystrophy” (BOARD OF REGENTS OF THE NEVADA SYSTEM OF HIGHER EDUCATION, …, priority 2013, dated 2018)
# Where two headings read alike, the source gives them in different places.
# Test system: α7 integrin (LacZ reporter in α7LacZ+/− myoblasts)
# Assay: qHTS of the LOPAC library and MLSMR (online screen, α7LacZ+/− myoblasts)
# Conditions: for activation at 0.307 µM / activation at 1.53 µM / activation at 7.66 µM / activation at 38.3 µM / Emax / EC50: Mus musculus, Myoblast; for activation at 0.307 µM: read-out: Activity at 0.307 uM [%] **; for activation at 1.53 µM: read-out: Activity at 1.530 uM [%] **; for activation at 7.66 µM: read-out: Activity at 7.660 uM [%] **; for activation at 38.3 µM: read-out: Activity at 38.30uM [%] **; for EC50: read-out: Fit LogAC50 (converted)
# [1] = 48 h, read-out: Fit Infinite Activity [%]
Compound,activation at 0.307 µM (48 h),activation at 1.53 µM (48 h),activation at 7.66 µM (48 h),activation at 38.3 µM (48 h),Emax [1],EC50,Emax (read-out: Max Response [%]),Score
Cc1nc2c(cnn2-c2ccccc2)c(=O)n1/N=C/c1ccccc1 [Compound 171],10%,10.2%,28.1%,68.4%,69.5%,10 µM,68.4%,–
CN(C)/C(S)=N/c1cccc(C(F)(F)F)c1 [Compound 172],8.95%,7.22%,31.2%,71.2%,73.8%,10 µM,71.2%,–
CC(C)(C)N/C=C(\C#N)S(=O)(=O)c1ccc(Br)cc1 [Compound 173],10.4%,21.1%,42.1%,72.3%,93%,–,72.3%,–
O=C(O)CCCNC(=O)CCn1nnc2ccccc2c1=O [Compound 174],-21.7%,-16.7%,13.6%,74.2%,83.7%,–,74.2%,–
CCNC(=O)COC(=O)c1cc(-c2ccco2)nc2ccccc12 [Compound 175],-59.9%,-45.5%,5.39%,48.1%,54%,–,48.1%,–
COc1cccc(N2C(=O)CC(N3CCc4ccccc4C3)C2=O)c1 (stereo not drawn) [Compound 176],-22.1%,-16.9%,5.26%,95.9%,96.1%,10 µM,95.9%,–
COC(=O)C1=NNC2(C)C(=O)N(c3ccc(C)cc3)C(=O)C12 (stereo not drawn) [Compound 177],1.31%,0.295%,16.2%,71.1%,71.5%,10 µM,71.1%,–
CCCOc1nc(SCCC)nc2c1cnn2-c1ccccc1 [Compound 178],-21.2%,-11.3%,18.9%,64.3%,85.3%,–,64.3%,–
COc1ccc(O)c(/C=N/NC(=O)c2cc(O)nc3ccccc23)c1 [Compound 179],-35.4%,-32.2%,20.9%,46.8%,48.4%,–,46.8%,–
CCOc1ccc(NC(=O)CN2C(=O)NC(CCSC)C2=O)cc1 (stereo not drawn) [Compound 180],0%,-2.4%,21.3%,75.1%,76.1%,10 µM,75.1%,–
COc1ccc(C(=O)CN2CCCCC2)cc1 [Compound 181],12.4%,12.9%,18.9%,92.8%,93%,–,92.8%,–
CNP(=O)(Oc1ccccc1)OC12CC3CC(CC(C3)C1)C2 (stereo not drawn) [Compound 182],0%,0%,34.7%,93.6%,98.2%,10 µM,93.6%,–
O=C(CCc1ccccc1)c1nnc(-c2ccccc2)o1 [Compound 183],0%,2.03%,24.4%,99.5%,99.7%,10 µM,99.5%,–
COc1ccc(CNC(=O)COC(=O)CCc2c[nH]c3ccccc23)cc1 [Compound 184],0%,-0.551%,26%,83.9%,85.5%,10 µM,83.9%,–
COc1ccccc1OCC(=O)N/N=C1/C=C(C)CC1 [Compound 185],-21.6%,-24%,0%,94.5%,94.2%,10 µM,94.5%,–
CC(C(=O)Nc1ccc(C#N)cc1)N(C)CC(=O)Nc1cccc(F)c1 (stereo not drawn) [Compound 186],-37.2%,-17.7%,15.1%,37.2%,48%,–,37.2%,–
COC(=O)C1SCC2C(=O)N(Cc3ccc(F)cc3)CC(=O)N21 (stereo not drawn) [Compound 187],-53.6%,-42.4%,-1.79%,51.5%,65.7%,–,51.5%,–
COc1ccc(-c2cc(COc3ccccc3)on2)cc1 [Compound 188],0%,0.795%,20%,88.1%,88.2%,10 µM,88.1%,–
Sc1nnc(Cn2cnc3ccccc32)n1-c1ccccc1 [Compound 189],13.1%,23.7%,44%,66.7%,84.6%,–,66.7%,–

Compound,activation at 0.307 µM (48 h),activation at 1.53 µM (48 h),activation at 7.66 µM (48 h),activation at 38.3 µM (48 h),Emax [1],EC50,Emax (read-out: Max Response [%]),Score
CN(C#N)c1nccc(-c2cccs2)n1 [Compound 190],-30.5%,-25.3%,6.31%,79.6%,87.5%,–,79.6%,–
O=Cc1cnc(N2CCCCC2)s1 [Compound 191],-18.1%,-20%,-4.2%,96%,96.3%,–,96%,–
Nc1nccc(-c2ccc(-n3cnc4ccccc43)cc2)n1 [Compound 192],0.89%,2.96%,15.9%,76.1%,76.5%,–,76.1%,–
COc1cc2c(cc1OC)C(NC(=O)C(F)(F)F)C/C2=N\O (stereo not drawn) [Compound 193],3.74%,2%,17.9%,91.5%,92.3%,–,91.5%,–
COc1ccc(N2CCN(CCC3Oc4cc([N+](=O)[O-])ccc4NC3=O)CC2)cc1 (stereo not drawn) [Compound 194],-2.43%,0%,30.6%,68%,73.9%,8.91 µM,68%,42
N#Cc1ccc(OCC(O)CS(=O)(=O)c2ccccc2)cc1 (stereo not drawn) [Compound 195],-7.88%,-12%,15.3%,89.4%,89.6%,10 µM,89.4%,–
Cc1ccccc1C(=O)Nc1nnc(SC(C)C)s1 [Compound 196],0%,0%,20.6%,65.1%,66.6%,10 µM,65.1%,–
CC(=O)c1cccc(NC(=O)C(=O)Nc2cccc3ccccc23)c1 [Compound 197],5.25%,15.7%,40.8%,66.9%,84.7%,–,66.9%,–
Cc1cc(C)nc(NC(=O)c2ccc(Cl)cc2Cl)n1 [Compound 198],2.39%,0%,17.6%,79.1%,79.2%,10 µM,79.1%,–
CC(C)N(CCO)C(=O)CCc1nnc(CCCc2ccccc2)o1 [Compound 199],0%,7.61%,32.2%,78.1%,96.2%,–,78.1%,–
c1ccc(CN2CCCC3(CCCN(Cc4nc(CC5CC5)no4)C3)C2)cc1 (stereo not drawn) [Compound 200],-40.9%,-35.8%,1.57%,46.2%,56.6%,–,46.2%,–
Cn1c(=O)c2c(nc(Sc3ncnn3CC(=O)NC3CCCCC3)n2C)n(C)c1=O [Compound 201],-21.5%,-17.1%,8.09%,69.8%,74.9%,–,69.8%,–
NS(=O)(=O)c1ccc(NC(=O)Nc2ccc(Cl)cc2)cc1 [Compound 202],–,–,–,–,–,–,–,42
CC1=C(C#N)C(=O)N(C)C(=O)/C1=C\NNc1ccc(F)cc1 [Compound 203],-46%,-36.9%,8.42%,51.8%,59.4%,–,51.8%,–
CCS(=O)(=O)N1CCN(c2ccc([N+](=O)[O-])c(NCC3CCCO3)c2)CC1 (stereo not drawn) [Compound 204],0.881%,0.157%,20.1%,70.3%,70.8%,10 µM,70.3%,–
O=C(NC(=S)NCCC1=CCCCC1)c1ccc(Br)o1 [Compound 205],-39.4%,-31.7%,12.1%,50.2%,57.8%,–,50.2%,–
CCCC(=O)Nc1ccccc1NC(=O)c1ccc(OCC)cc1 [Compound 206],12.1%,15.3%,28.5%,91.2%,91.9%,–,91.2%,–
NS(=O)(=O)c1ccc(NC(=O)c2ccc(CNS(=O)(=O)c3cc(C(F)(F)F)ccc3Cl)cc2)cc1 [Compound 207],0.545%,0%,25.5%,73.3%,75.5%,10 µM,73.3%,–
